The values below come from ChEMBL document CHEMBL3632586, “Designing, synthesis of selective and high-affinity chalcone-benzothiazole hybrids as Brugia malayi thymidylate kinase inhibitors: In vitro validation and docking studies” (Eur J Med Chem, 2015).

A word on the inhibition: it is the percentage by which the read-out fell short of the control. What is called pKi is the Ki on a negative log10 scale, so that one unit is a factor of ten. The CC50 is the concentration giving 50% cytotoxicity. The term pIC50 denotes the negative decadic logarithm of the IC50, by convention in mol/L.

Data set [1] relates to Brugia malayi. Nature of the data set: Antifilarial activity against Brugia malayi microfilariae assessed as motility reduction at 10 uM/ml after 1 hr by microscopic analysis. Format: functional.
For data set [2], the system named is Brugia malayi. Nature of the data set: Antifilarial activity against adult Brugia malayi assessed as reduction in viability at 0.3 uM/ml after 24 to 48 hrs by MTT assay. The format is functional, organism-based. On the technique in general: Formazan colour is commonly taken as a measure of viable cells.
Data set [3] relates to Brugia malayi. In words: Antifilarial activity against adult Brugia malayi assessed as motility reduction after 1 hr by microscopic analysis. The format is functional, organism-based.
Data set [4] relates to Brugia malayi. In words: Antifilarial activity against Brugia malayi microfilariae assessed as motility reduction at 1.25 uM/ml after 1 hr by microscopic analysis. Format: functional.
Data set [5] deals with Brugia malayi. In words: Antifilarial activity against Brugia malayi microfilariae assessed as motility reduction at 0.15 uM/ml after 1 hr by microscopic analysis. Format: functional, organism-based.
Data set [6] concerns Brugia malayi. In words: Antifilarial activity against Brugia malayi microfilariae assessed as motility reduction at 0.6 uM/ml after 1 hr by microscopic analysis. Format: functional, organism-based.
The subject of data set [7] is Brugia malayi. In words: Antifilarial activity against adult Brugia malayi assessed as motility reduction at 0.3 uM/ml after 1 hr by microscopic analysis. Format: functional, organism-based.
Data set [8] deals with Brugia malayi. In words: Antifilarial activity against adult Brugia malayi assessed as motility reduction at 0.6 uM/ml after 1 hr by microscopic analysis. Format: functional, organism-based.
Data set [9] deals with Brugia malayi. In words: Antifilarial activity against Brugia malayi microfilariae assessed as motility reduction after 1 hr by microscopic analysis. Format: functional, organism-based.
For data set [10], the system named is Brugia malayi. Nature of the data set: Antifilarial activity against adult Brugia malayi assessed as motility reduction at 1.25 uM/ml after 1 hr by microscopic analysis. Format: functional.
In data set [11] the test system is Brugia malayi. In words: Antifilarial activity against adult Brugia malayi assessed as motility reduction at 10 uM/ml after 1 hr by microscopic analysis. The format is functional.
For data set [12], the system named is Brugia malayi. In words: Antifilarial activity against adult Brugia malayi assessed as reduction in viability at 1.25 uM/ml after 24 to 48 hrs by MTT assay. The format is functional.
Data set [13] concerns Brugia malayi. Nature of the data set: Antifilarial activity against adult Brugia malayi assessed as reduction in viability at 5 uM/ml after 24 to 48 hrs by MTT assay. Format: functional.
In data set [14] the test system is Brugia malayi. Nature of the data set: Antifilarial activity against Brugia malayi microfilariae assessed as motility reduction at 0.3 uM/ml after 1 hr by microscopic analysis. Format: functional, organism-based.
In data set [15] the test system is Brugia malayi. In words: Antifilarial activity against Brugia malayi microfilariae assessed as motility reduction at 2.5 uM/ml after 1 hr by microscopic analysis. The format is functional.
The subject of data set [16] is Brugia malayi. Nature of the data set: Antifilarial activity against adult Brugia malayi assessed as reduction in viability at 0.15 uM/ml after 24 to 48 hrs by MTT assay. The format is functional, organism-based.
In data set [17] the test system is Brugia malayi. Nature of the data set: Antifilarial activity against adult Brugia malayi assessed as reduction in viability at 10 uM/ml after 24 to 48 hrs by MTT assay. The format is functional.
For data set [18], the system named is Brugia malayi. Nature of the data set: Antifilarial activity against Brugia malayi microfilariae assessed as motility reduction at 5 uM/ml after 1 hr by microscopic analysis. Format: functional.
The subject of data set [19] is Brugia malayi. In words: Antifilarial activity against adult Brugia malayi assessed as motility reduction at 5 uM/ml after 1 hr by microscopic analysis. Format: functional.
For data set [20], the system named is Brugia malayi. Nature of the data set: Antifilarial activity against adult Brugia malayi assessed as reduction in viability at 0.6 uM/ml after 24 to 48 hrs by MTT assay. Format: functional, organism-based.
In data set [21] the test system is Brugia malayi. Nature of the data set: Antifilarial activity against adult Brugia malayi assessed as motility reduction at 0.15 uM/ml after 1 hr by microscopic analysis. Format: functional, organism-based.
Data set [22] relates to Brugia malayi. In words: Antifilarial activity against adult Brugia malayi assessed as reduction in viability at 2.5 uM/ml after 24 to 48 hrs by MTT assay. The format is functional.
Data set [23] relates to Brugia malayi. Nature of the data set: Antifilarial activity against adult Brugia malayi assessed as motility reduction at 2.5 uM/ml after 1 hr by microscopic analysis. The format is functional.
Data set [24] can be described thus: Inhibition of recombinant Brugia malayi TMK using dTMP as substrate by pyruvate kinase/lactate dehydrogenase coupled assay.
Data set [25] in a line: Cytotoxicity against African green monkey Vero cells after 72 hrs by resazurin dye-based fluorometric analysis. The note with it: chlorocebus sabaeus. Format: cell-based.
The nature of data set [26]: Therapeutic index, ratio of CC50 for monkey VERO cells to IC50 for adult Brugia malayi. Format: cell-based. To be noted: for selectivity ratio: Vero cells, read-out: Ratio CC50/IC50.
For data set [27], the system named is Brugia malayi. In words: Antifilarial activity against adult Brugia malayi assessed as reduction in viability at 0.625 uM/ml after 24 to 48 hrs by MTT assay. Format: functional.
For data set [28], the system named is Brugia malayi. Nature of the data set: Antifilarial activity against Brugia malayi microfilariae assessed as motility reduction at 0.625 uM/ml after 1 hr by microscopic analysis. Format: functional.
The test system of data set [29] is Brugia malayi. In words: Antifilarial activity against adult Brugia malayi assessed as motility reduction at 0.625 uM/ml after 1 hr by microscopic analysis. Format: functional.
Data set [30] in a line: Therapeutic index, ratio of CC50 for monkey VERO cells to IC50 for Brugia malayi microfilariae. To be noted: for selectivity ratio: Vero cells, read-out: Ratio CC50/IC50. The format is cell-based.

pIC50, pKi: −log10 of the molar value. In brackets after ≈: the same amount, converted by molar mass.

Turning to IVERMECTIN [listing 1 of 2 here], the inhibition stood at 100% in data set [1]; 10.7% in [2]; 75% in data set [4]; 0% in data set [5]; 50% in [6]; 50% in [7]. The inhibition came out at 100% in data set [8]; 100% in data set [10]; 100% in data set [11]; 34.9% in data set [12]; 62.9% in data set [13]; 0% in data set [14]. In addition, the inhibition is 75% in data set [15]; 15.7% in data set [16]; 76% in [17]; 75% in [18]; 100% in data set [19]; 22.9% in data set [20]. Besides, the inhibition is 1% in [21], 50.5% in data set [22] and 100% in [23]. Further, the MIC in data set [3] came out at 8.9 µM; in data set [9] it was 10 µM.
For the compound `CCCc1cc(/C=N/Nc2nc3ccccc3s2)cc(/C=C/C(=O)c2ccc(OC)c(OC)c2)c1O`, in [24], the pKi is 4.57.
Take `Cc1ccc(C(=O)/C=C/c2cc(/C=N/Nc3nc4ccccc4s3)cc(C(C)(C)C)c2O)cc1`: the pKi in data set [24] is 5.33.
In the case of `CC(C)c1cc(/C=N/Nc2nc3ccccc3s2)cc(/C=C/C(=O)c2ccc(Cl)cc2)c1O`, in data set [24], the pKi is 4.64.
Still for that read-out and setting: the result for `CCc1cc(/C=N/Nc2nc3ccccc3s2)cc(/C=C/C(=O)c2ccc(OC)cc2)c1O` reads 4.52.
For `CC(C)c1cc(/C=N/Nc2nc3ccccc3s2)cc(/C=C/C(=O)c2cccs2)c1O`, it took 95.3 µM to reach half-maximal cytotoxicity in [25] (CC50 at 72 h). The pIC50 is 5.67 in data set [3] and 5.79 in data set [9]. In addition, the MIC in data set [3] and in data set [9] was 5 µM (≈ 2.24 µg/mL) each time. Further, the inhibition at 1.25 µM in [4] was found to be 50%; in data set [10] it was 1%; in [12] it was 9.3%. For the same compound, the results for the selectivity ratio in [26] and in [30] were 44.9 and 58.5, respectively. For the same compound, the figures for the inhibition at 0.625 µM in [27], in [28] and in data set [29] were 8.7%, 1% and 1%, respectively. The pKi in [24] was 5.69. Moreover, the inhibition at 5 µM in data set [13] was 85%; in [18], 100%; in data set [19] it was 100%. Also, the inhibition at 2.5 µM in [15] turned out to be 75%; in data set [22], 40.3%; in data set [23] it was 50%.
In the case of `COc1ccc(C(=O)/C=C/c2cc(/C=N/Nc3nc4ccccc4s3)cc(C(C)C)c2O)cc1OC`, the pKi in [24] is 4.30.
Same read-out and setting: the result for `CCCc1cc(/C=N/Nc2nc3ccccc3s2)cc(/C=C/C(=O)c2ccc(Cl)cc2)c1O` reads 4.57; that for `CC(C)(C)c1cc(/C=N/Nc2nc3ccccc3s2)cc(/C=C/C(=O)c2ccc(F)cc2)c1O`, 5.50.
Compound `CCc1cc(/C=N/Nc2nc3ccccc3s2)cc(/C=C/C(=O)c2ccccc2)c1O` came in with a CC50 at 72 h in data set [25] of 48.6 µM. For the same compound, the results for the inhibition at 10 µM in [1], in data set [11] and in data set [17] were 100%, 100% and 90.4%, respectively. The pIC50 in [3] is 5.36; in data set [9] it was 5.58. Also, the MIC in [3] and in data set [9] was 10 µM (≈ 4.28 µg/mL) throughout. Besides, the inhibition at 1.25 µM in data set [4] came to 1%; in data set [10] it was 1%; in [12], 10.5%. Also, the selectivity ratio in data set [26] was 11.2; in data set [30], 18.4. Further, the pKi in [24] was 5.60. Besides, the inhibition at 5 µM in data set [13] stood at 48%; in data set [18] it was 75%; in data set [19] it was 50%. In addition, the inhibition at 2.5 µM in [15] was 75%; in data set [22], 30%; in data set [23], 1%.
Turning to `Cc1cc(/C=N/Nc2nc3ccccc3s2)cc(/C=C/C(=O)c2ccccc2)c1O`, the pKi in data set [24] was 4.78.
On the same count and under the same terms, the result for `CCC(C)c1cc(/C=N/Nc2nc3ccccc3s2)cc(/C=C/C(=O)c2ccc(F)cc2)c1O` (stereo not drawn) reads 5.10; that for `CCC(C)c1cc(/C=N/Nc2nc3ccccc3s2)cc(/C=C/C(=O)c2ccc(OC)cc2)c1O` (stereo not drawn), 5.31; that for `CC(C)c1cc(/C=N/Nc2nc3ccccc3s2)cc(/C=C/C(=O)c2ccc(F)cc2)c1O`, 4.67.
For the compound IVERMECTIN [listing 2 of 2 here], the “Ratio CC50/IC50” value in data set [26] (vero) is on record as 29.5; in data set [30] (vero), 13.28.
With `CC(C)(C)c1cc(/C=N/Nc2nc3ccccc3s2)cc(/C=C/C(=O)c2ccccc2)c1O`, the pKi in [24] was 4.69.
As to `COc1ccc(C(=O)/C=C/c2cc(/C=N/Nc3nc4ccccc4s3)cc(C(C)C)c2O)cc1`, in data set [24], the pKi is 5.51.
